Tested on: 485368-065-R3-J5-PDC spheroids with HUVEC/MSC, viability
Assay: Anticancer human tumor 485368-065-R3-J5-PDC patient-derived pancreatic carcinoma cell line growth inhibition [RAS]
Details: for viability, T/C: stronger effect = lower value
Method in brief: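 Agents were tested in combination matrices in half-log decrements from a top concentration at or near clinical Cmax (10 microM if undetermined). Targets were multi-cell spheroids of tumour lines plus HUVEC and MSC stromal cells.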

[1] = curve of first compound, second compound 0.0316 µM
[2] = curve of first compound, second compound 0.1 µM
[3] = curve of first compound, second compound 0.316 µM
[4] = curve of first compound, second compound 1 µM
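Further: spheroids exposed to agents for seven days before readout.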

CC1(C)CCC(Nc2ncc(C(F)(F)F)c(-c3c[nH]c4c(P(C)(C)=O)c(C#N)ccc34)n2)CN1 (stereo not drawn) + C#Cc1c(F)ccc2cc(O)cc(-c3ncc4c(N5CC6CCC(C5)N6)nc(OCC56CCCN5CC(F)C6)nc4c3F)c12
IC50 [1]: 3.18 nM | IC50 [2]: 3.83 nM | IC50 [3]: 4.39 nM | IC50 [4]: 4.77 nM | IC50 (curve of first compound, second compound 3.16 µM): 4.85 nM | IC50 (curve of first compound, second compound 10 µM): < 0.949 nM | viability, T/C (second compound 0.0316 µM, first compound 0.000949 µM): 89.8% | viability, T/C (second compound 0.0316 µM, first compound 0.003 µM): 51.1% | viability, T/C (second compound 0.0316 µM, first compound 0.00949 µM): 33.6% | viability, T/C (second compound 0.0316 µM, first compound 0.03 µM): 31% | viability, T/C (second compound 0.0316 µM, first compound 0.0949 µM): 27.3% | viability, T/C (second compound 0.0316 µM, first compound 0.3 µM): 30.2% | viability, T/C (second compound 0.1 µM, first compound 0.000949 µM): 92.7% | viability, T/C (second compound 0.1 µM, first compound 0.003 µM): 53.2% | viability, T/C (second compound 0.1 µM, first compound 0.00949 µM): 38.5% | viability, T/C (second compound 0.1 µM, first compound 0.03 µM): 29.4% | viability, T/C (second compound 0.1 µM, first compound 0.0949 µM): 27.7% | viability, T/C (second compound 0.1 µM, first compound 0.3 µM): 33.6% | viability, T/C (second compound 0.316 µM, first compound 0.000949 µM): 91.5% | viability, T/C (second compound 0.316 µM, first compound 0.003 µM): 56.4% | viability, T/C (second compound 0.316 µM, first compound 0.00949 µM): 36.4% | viability, T/C (second compound 0.316 µM, first compound 0.03 µM): 33.6% | viability, T/C (second compound 0.316 µM, first compound 0.0949 µM): 30.1% | viability, T/C (second compound 0.316 µM, first compound 0.3 µM): 28.8% | viability, T/C (second compound 1 µM, first compound 0.000949 µM): 85.2% | viability, T/C (second compound 1 µM, first compound 0.003 µM): 55.8% | viability, T/C (second compound 1 µM, first compound 0.00949 µM): 40.7% | viability, T/C (second compound 1 µM, first compound 0.03 µM): 36% | viability, T/C (second compound 1 µM, first compound 0.0949 µM): 30.8% | viability, T/C (second compound 1 µM, first compound 0.3 µM): 31.1% | viability, T/C (second compound 3.16 µM, first compound 0.000949 µM): 72.3% | viability, T/C (second compound 3.16 µM, first compound 0.003 µM): 56.3% | viability, T/C (second compound 3.16 µM, first compound 0.00949 µM): 41.2% | viability, T/C (second compound 3.16 µM, first compound 0.03 µM): 36.5% | viability, T/C (second compound 3.16 µM, first compound 0.0949 µM): 36.9% | viability, T/C (second compound 3.16 µM, first compound 0.3 µM): 35.6% | viability, T/C (second compound 10 µM, first compound 0.000949 µM): 41.6% | viability, T/C (second compound 10 µM, first compound 0.003 µM): 38.1% | viability, T/C (second compound 10 µM, first compound 0.00949 µM): 31.4% | viability, T/C (second compound 10 µM, first compound 0.03 µM): 35.4% | viability, T/C (second compound 10 µM, first compound 0.0949 µM): 30.4% | viability, T/C (second compound 10 µM, first compound 0.3 µM): 27.8%

O=C(c1ccc(F)c(F)c1Nc1ccc(I)cc1F)N1CC(O)([C@@H]2CCCCN2)C1
viability, T/C (compound 0.00316 µM): 98.9% [middle of 4 runs] | viability, T/C (compound 0.01 µM): 69.2% [middle of 4 runs] | viability, T/C (compound 0.0316 µM): 54.5% [middle of 4 runs] | viability, T/C (compound 0.1 µM): 36.6% [middle of 4 runs] | viability, T/C (compound 0.316 µM): 26.7% [middle of 4 runs] | viability, T/C (compound 1 µM): 11.3% [middle of 4 runs] | IC50 (curve of compound): 42.7 nM [middle of 4 runs]

CC(C)n1nc(-c2ccc3oc(N)nc3c2)c2c(N)ncnc21 + C=CC(=O)N1CCN(c2nc(OCC3CCCN3C)nc3c(F)c(-c4nc(N)cc(C)c4C(F)(F)F)c(Cl)cc23)C(C)C1
IC50 (curve of first compound, second compound 0.00316 µM): 14 nM | IC50 (curve of first compound, second compound 0.01 µM): 14.6 nM | IC50 [1]: 16.9 nM | IC50 [2]: 19.6 nM | IC50 [3]: 16.9 nM | IC50 [4]: 21.7 nM | viability, T/C (second compound 0.00316 µM, first compound 0.000316 µM): 106% | viability, T/C (second compound 0.00316 µM, first compound 0.001 µM): 99.4% | viability, T/C (second compound 0.00316 µM, first compound 0.00316 µM): 77.1% | viability, T/C (second compound 0.00316 µM, first compound 0.01 µM): 56% | viability, T/C (second compound 0.00316 µM, first compound 0.0316 µM): 35.6% | viability, T/C (second compound 0.00316 µM, first compound 0.1 µM): 16.1% | viability, T/C (second compound 0.01 µM, first compound 0.000316 µM): 104% | viability, T/C (second compound 0.01 µM, first compound 0.001 µM): 90.4% | viability, T/C (second compound 0.01 µM, first compound 0.00316 µM): 81.4% | viability, T/C (second compound 0.01 µM, first compound 0.01 µM): 53.6% | viability, T/C (second compound 0.01 µM, first compound 0.0316 µM): 37.2% | viability, T/C (second compound 0.01 µM, first compound 0.1 µM): 15.3% | viability, T/C (second compound 0.0316 µM, first compound 0.000316 µM): 97.2% | viability, T/C (second compound 0.0316 µM, first compound 0.001 µM): 95.8% | viability, T/C (second compound 0.0316 µM, first compound 0.00316 µM): 84.7% | viability, T/C (second compound 0.0316 µM, first compound 0.01 µM): 60.9% | viability, T/C (second compound 0.0316 µM, first compound 0.0316 µM): 36.5% | viability, T/C (second compound 0.0316 µM, first compound 0.1 µM): 16.6% | viability, T/C (second compound 0.1 µM, first compound 0.000316 µM): 105% | viability, T/C (second compound 0.1 µM, first compound 0.001 µM): 90.9% | viability, T/C (second compound 0.1 µM, first compound 0.00316 µM): 96.3% | viability, T/C (second compound 0.1 µM, first compound 0.01 µM): 73.9% | viability, T/C (second compound 0.1 µM, first compound 0.0316 µM): 32.8% | viability, T/C (second compound 0.1 µM, first compound 0.1 µM): 15.8% | viability, T/C (second compound 0.316 µM, first compound 0.000316 µM): 105% | viability, T/C (second compound 0.316 µM, first compound 0.001 µM): 99.8% | viability, T/C (second compound 0.316 µM, first compound 0.00316 µM): 83.3% | viability, T/C (second compound 0.316 µM, first compound 0.01 µM): 60.1% | viability, T/C (second compound 0.316 µM, first compound 0.0316 µM): 38% | viability, T/C (second compound 0.316 µM, first compound 0.1 µM): 19.6% | viability, T/C (second compound 1 µM, first compound 0.000316 µM): 100% | viability, T/C (second compound 1 µM, first compound 0.001 µM): 87.8% | viability, T/C (second compound 1 µM, first compound 0.00316 µM): 84.1% | viability, T/C (second compound 1 µM, first compound 0.01 µM): 67% | viability, T/C (second compound 1 µM, first compound 0.0316 µM): 41% | viability, T/C (second compound 1 µM, first compound 0.1 µM): 16.1%

CCn1c(-c2cc(N3CCN(C)CC3)cnc2C(C)OC)c2c3cc(ccc31)-c1csc(n1)CC(NC(=O)C1CC1C)C(=O)N1CCCC(N1)C(=O)OCC(C)(C)C2 (stereo not drawn)
viability, T/C (compound 0.000949 µM): 35.5% [middle of 8 runs] | viability, T/C (compound 0.003 µM): 22.9% [middle of 8 runs] | viability, T/C (compound 0.00949 µM): 17.3% [middle of 8 runs] | viability, T/C (compound 0.03 µM): 12.7% [middle of 8 runs] | viability, T/C (compound 0.0949 µM): 10.3% [middle of 7 runs] | viability, T/C (compound 0.3 µM): 8.88% [middle of 8 runs] | IC50 (compound alone, run of 07/09/2024): < 0.949 nM

Reference: PubChem BioAssay AID2060902 (Molecular Pharmacology Branch, DTP, NCI, 2025)
